From ChEMBL document CHEMBL1144555, “Chemoenzymatic synthesis and antimicrobial activity evaluation of monoglucosyl diglycerides” (2007)
In brackets after ≈: the same amount, converted by molar mass.

How the values were obtained:
Type in all cases: functional
[1] = test system: Staphylococcus aureus; assay: Antimicrobial activity against Staphylococcus aureus 85
[2] = test system: Mycobacterium tuberculosis; assay: Antimicrobial activity against Mycobacterium tuberculosis H37Rv
[3] = test system: Staphylococcus aureus; assay: Antimicrobial activity against Staphylococcus aureus 87
[4] = test system: Staphylococcus aureus; assay: Antimicrobial activity against Staphylococcus aureus ATCC 105487
[5] = test system: Candida albicans; assay: Antimicrobial activity against Candida albicans
[6] = test system: Staphylococcus aureus; assay: Antimicrobial activity against Staphylococcus aureus ATCC 25923
[7] = test system: Staphylococcus aureus; assay: Antimicrobial activity against Staphylococcus aureus 52
[8] = test system: Enterococcus faecalis; assay: Antimicrobial activity against Enterococcus faecalis ATCC 29212
[9] = test system: Mycobacterium tuberculosis; assay: Antimicrobial activity against Mycobacterium tuberculosis H160
[10] = test system: Kluyveromyces marxianus; assay: Antimicrobial activity against Candida pseudotropicalis
[11] = test system: Mycobacterium tuberculosis; assay: Antimicrobial activity against Mycobacterium tuberculosis H190
[12] = test system: Bacillus subtilis; assay: Antimicrobial activity against Bacillus subtilis ATCC 6633
[13] = test system: Pseudomonas aeruginosa; assay: Antimicrobial activity against Pseudomonas aeruginosa ATCC 27753
[14] = test system: Escherichia coli; assay: Antimicrobial activity against Escherichia coli ATCC 25922

| Structure (SMILES) | MIC [1] | MIC [2] | MIC [3] | MIC [4] | MIC [5] | MIC [6] | MIC [7] | MIC [8] | MIC [9] | MIC [10] | MIC [11] | MIC [12] | MIC [13] | MIC [14] |
| --- | --- | --- | --- | --- | --- | --- | --- | --- | --- | --- | --- | --- | --- | --- |
| CC/C=C/C/C=C/C/C=C/CCCCCCCC(=O)OCC(CO[C@@H]1O[C@H](CO)[C@@H](O)[C@H](O)[C@H]1O)OC(=O)CCCCCCC/C=C/C/C=C/C/C=C/CC (some centres undefined) | > 128 µg/mL | > 128 µg/mL | > 128 µg/mL | > 128 µg/mL | > 128 µg/mL | > 128 µg/mL | > 128 µg/mL | > 128 µg/mL | > 128 µg/mL | > 128 µg/mL | > 128 µg/mL | > 128 µg/mL | > 128 µg/mL | > 128 µg/mL |
| CCCCCCCCCCCCCC(=O)OCC(CO[C@@H]1O[C@H](CO)[C@@H](O)[C@H](O)[C@H]1O)OC(=O)CCCCCCCCCCCCC (some centres undefined) | > 128 µg/mL | > 128 µg/mL | > 128 µg/mL | > 128 µg/mL | > 128 µg/mL | > 128 µg/mL | > 128 µg/mL | > 128 µg/mL | > 128 µg/mL | > 128 µg/mL | > 128 µg/mL | > 128 µg/mL | > 128 µg/mL | > 128 µg/mL |
| CCCCC/C=C/C/C=C/CCCCCCCC(=O)OCC(CO[C@@H]1O[C@H](CO)[C@@H](O)[C@H](O)[C@H]1O)OC(=O)CCCCCCC/C=C/C/C=C/CCCCC (mixture of isomers) | > 128 µg/mL | 64 µg/mL | 64 µg/mL | > 128 µg/mL | > 128 µg/mL | > 128 µg/mL | > 128 µg/mL | > 128 µg/mL | 64 µg/mL | > 128 µg/mL | 128 µg/mL | 128 µg/mL | > 128 µg/mL | > 128 µg/mL |
| CC/C=C/C/C=C/C/C=C/CCCCCCCC(=O)OC(COC(=O)CCCCCCC)CO[C@@H]1O[C@H](CO)[C@@H](O)[C@H](O)[C@H]1O (mixture of isomers) | > 128 µg/mL | 64 µg/mL | 64 µg/mL | > 128 µg/mL | > 128 µg/mL | > 128 µg/mL | > 128 µg/mL | > 128 µg/mL | 128 µg/mL | > 128 µg/mL | 64 µg/mL | 128 µg/mL | > 128 µg/mL | > 128 µg/mL |
| CC/C=C/C/C=C/C/C=C/CCCCCCCC(=O)OC(COC(=O)CCCCCCCCC)CO[C@@H]1O[C@H](CO)[C@@H](O)[C@H](O)[C@H]1O (mixture of isomers) | 64 µg/mL | > 128 µg/mL | 32 µg/mL | > 128 µg/mL | > 128 µg/mL | > 128 µg/mL | > 128 µg/mL | > 128 µg/mL | > 128 µg/mL | > 128 µg/mL | > 128 µg/mL | > 128 µg/mL | > 128 µg/mL | > 128 µg/mL |
| CCCCCCCC(=O)OCC(CO[C@@H]1O[C@H](CO)[C@@H](O)[C@H](O)[C@H]1O)OC(=O)CCCCCCC (mixture of isomers) | 16 µg/mL | 64 µg/mL | 16 µg/mL | 32 µg/mL | > 128 µg/mL | 16 µg/mL | > 128 µg/mL | 32 µg/mL | 64 µg/mL | > 128 µg/mL | 64 µg/mL | 16 µg/mL | > 128 µg/mL | > 128 µg/mL |
| CCCCCCCCCC(=O)OCC(CO[C@@H]1O[C@H](CO)[C@@H](O)[C@H](O)[C@H]1O)OC(=O)CCCCCCCCC (mixture of isomers) | > 128 µg/mL | 128 µg/mL | 64 µg/mL | > 128 µg/mL | > 128 µg/mL | > 128 µg/mL | > 128 µg/mL | > 128 µg/mL | 64 µg/mL | > 128 µg/mL | 64 µg/mL | > 128 µg/mL | > 128 µg/mL | > 128 µg/mL |
| CCCCCCCC/C=C/CCCCCCCC(=O)OCC(CO[C@@H]1O[C@H](CO)[C@@H](O)[C@H](O)[C@H]1O)OC(=O)CCCCCCC/C=C/CCCCCCCC (mixture of isomers) | > 128 µg/mL | > 128 µg/mL | > 128 µg/mL | > 128 µg/mL | > 128 µg/mL | > 128 µg/mL | > 128 µg/mL | > 128 µg/mL | > 128 µg/mL | > 128 µg/mL | > 128 µg/mL | > 128 µg/mL | > 128 µg/mL | > 128 µg/mL |
| CCCCC/C=C/C/C=C/CCCCCCCC(=O)OC(COC(=O)CCCCCCC)CO[C@@H]1O[C@H](CO)[C@@H](O)[C@H](O)[C@H]1O (mixture of isomers) | > 128 µg/mL | 64 µg/mL | 64 µg/mL | > 128 µg/mL | > 128 µg/mL | > 128 µg/mL | > 128 µg/mL | > 128 µg/mL | 128 µg/mL | > 128 µg/mL | 64 µg/mL | 128 µg/mL | > 128 µg/mL | > 128 µg/mL |
| CCCCCCCCCCCCCCCCCC(=O)OCC(CO[C@@H]1O[C@H](CO)[C@@H](O)[C@H](O)[C@H]1O)OC(=O)CCCCCCCCCCCCCCCCC (mixture of isomers) | > 128 µg/mL | > 128 µg/mL | > 128 µg/mL | > 128 µg/mL | > 128 µg/mL | > 128 µg/mL | > 128 µg/mL | > 128 µg/mL | > 128 µg/mL | > 128 µg/mL | > 128 µg/mL | > 128 µg/mL | > 128 µg/mL | > 128 µg/mL |
| CCCCCCCCCCCC(=O)OCC(CO[C@@H]1O[C@H](CO)[C@@H](O)[C@H](O)[C@H]1O)OC(=O)CCCCCCCCCCC (mixture of isomers) | > 128 µg/mL | > 128 µg/mL | > 128 µg/mL | > 128 µg/mL | > 128 µg/mL | > 128 µg/mL | > 128 µg/mL | > 128 µg/mL | > 128 µg/mL | > 128 µg/mL | > 128 µg/mL | > 128 µg/mL | > 128 µg/mL | > 128 µg/mL |
| CCCCCCCC/C=C/CCCCCCCC(=O)OC(COC(=O)CCCCCCC)CO[C@@H]1O[C@H](CO)[C@@H](O)[C@H](O)[C@H]1O (mixture of isomers) | > 128 µg/mL | 64 µg/mL | 64 µg/mL | > 128 µg/mL | > 128 µg/mL | > 128 µg/mL | > 128 µg/mL | > 128 µg/mL | 64 µg/mL | > 128 µg/mL | 64 µg/mL | 128 µg/mL | > 128 µg/mL | > 128 µg/mL |
| CCCCCCCC/C=C/CCCCCCCC(=O)OC(COC(=O)CCCCCCCCC)CO[C@@H]1O[C@H](CO)[C@@H](O)[C@H](O)[C@H]1O (mixture of isomers) | 128 µg/mL | > 128 µg/mL | > 128 µg/mL | > 128 µg/mL | > 128 µg/mL | 8 µg/mL | > 128 µg/mL | > 128 µg/mL | > 128 µg/mL | > 128 µg/mL | > 128 µg/mL | 32 µg/mL | > 128 µg/mL | > 128 µg/mL |
| CCCCC/C=C/C/C=C/CCCCCCCC(=O)OC(COC(=O)CCCCCCCCC)CO[C@@H]1O[C@H](CO)[C@@H](O)[C@H](O)[C@H]1O (mixture of isomers) | 32 µg/mL | > 128 µg/mL | > 32 µg/mL | 32 µg/mL | > 128 µg/mL | > 128 µg/mL | > 128 µg/mL | 64 µg/mL | > 128 µg/mL | > 128 µg/mL | > 128 µg/mL | 128 µg/mL | > 128 µg/mL | > 128 µg/mL |
| O=C(O)c1cn(C2CC2)c2cc(N3CCNCC3)c(F)cc2c1=O [CIPROFLOXACIN] | 0.5 µg/mL (≈ 1.51 µM) | 0.5 µg/mL (≈ 1.51 µM) | 0.5 µg/mL (≈ 1.51 µM) | 0.25 µg/mL (≈ 0.754 µM) |  | 0.5 µg/mL (≈ 1.51 µM) | > 4 µg/mL | 1 µg/mL (≈ 3.02 µM) | 0.5 µg/mL (≈ 1.51 µM) |  | 0.5 µg/mL (≈ 1.51 µM) | 0.25 µg/mL (≈ 0.754 µM) | 1 µg/mL (≈ 3.02 µM) |  |
| Clc1ccc(COC(Cn2ccnc2)c2ccc(Cl)cc2Cl)c(Cl)c1 (centres undefined) [MICONAZOLE] |  |  |  |  | 8 µg/mL (≈ 19.2 µM) |  |  |  |  | 0.5 µg/mL (≈ 1.2 µM) |  |  |  |  |
